Laboratory results: patent publication US10093630B2, “Pyrazole compounds and methods of making and using same” (ABIDE THERAPEUTICS, INC., priority 2014, dated 2018)

What was measured:
Assay in all cases: In vitro competitive activity-based protein profiling (gel-based, FP-Rh or HT-01 probe)
Type in all cases: biochemical
ABHD6 = biological target: T1, ABHD6 (Mus musculus, UniProt Q8R2Y0); conditions: for inhibition at 1 µM: 1 μM inhibitor, read-out: % Inhibition at 1 μM, C = ABHD6; for inhibition at 10 µM: 10 μM inhibitor, read-out: % Inhibition at 10 μM, C = ABHD6; for IC50: mouse brain membrane fraction or cell lysates, 30 min preincubation at 37° C., read-out: Mouse (IC50 value, nM) ABHD6
T1 construct: Proteomes (mouse brain membrane fraction or cell lysates); from tissue; host or cells: mouse brain membrane fraction (or cell lysates, not specified)
T1 sequence (Q8R2Y0 1-336): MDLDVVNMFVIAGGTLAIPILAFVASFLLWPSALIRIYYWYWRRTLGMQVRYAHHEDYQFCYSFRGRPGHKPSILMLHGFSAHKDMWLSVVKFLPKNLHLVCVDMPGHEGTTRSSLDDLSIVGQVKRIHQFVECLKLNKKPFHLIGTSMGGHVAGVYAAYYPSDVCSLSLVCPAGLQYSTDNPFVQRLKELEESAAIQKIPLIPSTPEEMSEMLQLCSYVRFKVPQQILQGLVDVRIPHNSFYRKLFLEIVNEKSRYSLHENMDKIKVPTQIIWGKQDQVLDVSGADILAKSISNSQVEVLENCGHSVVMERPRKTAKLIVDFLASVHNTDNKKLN
Summary of the method: (§1)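 Mouse brain membrane or cell lysate proteomes (1.0 mg/mL) preincubated with inhibitors 30 min at 37° C, then labelled with FP-Rh or HT-01 for 30 min at 37° C. After SDS-PAGE, activity quantified from fluorescent band intensity.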

PLA2G7 = biological target: T2, PLA2G7 (Mus musculus, UniProt Q60963); conditions: for inhibition at 1 µM: 1 μM inhibitor, read-out: % Inhibition at 1 μM, D = PLA2G7; for inhibition at 10 µM: 10 μM inhibitor, read-out: % Inhibition at 10 μM, D = PLA2G7; for IC50: mouse brain membrane fraction or cell lysates, 30 min preincubation at 37° C.
T2 construct: Proteomes (mouse brain membrane fraction or cell lysates); from tissue; host or cells: mouse brain membrane fraction (or cell lysates, not specified)
T2 sequence (Q60963 22-440): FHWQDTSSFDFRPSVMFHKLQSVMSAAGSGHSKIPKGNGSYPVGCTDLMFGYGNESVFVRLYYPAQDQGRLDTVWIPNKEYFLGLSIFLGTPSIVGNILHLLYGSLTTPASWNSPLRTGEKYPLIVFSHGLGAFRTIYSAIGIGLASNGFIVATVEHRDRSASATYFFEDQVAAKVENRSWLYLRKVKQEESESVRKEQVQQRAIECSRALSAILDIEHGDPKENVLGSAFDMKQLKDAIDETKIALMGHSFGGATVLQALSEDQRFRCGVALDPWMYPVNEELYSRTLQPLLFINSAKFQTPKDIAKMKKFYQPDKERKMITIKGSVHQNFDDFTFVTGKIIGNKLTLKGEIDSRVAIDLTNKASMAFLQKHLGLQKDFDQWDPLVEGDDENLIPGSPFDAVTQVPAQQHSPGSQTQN
Summary of the method: as §1

MAGL = biological target: T3, MAGL (Mus musculus, UniProt O35678); conditions: for inhibition at 1 µM: 1 μM inhibitor; for inhibition at 10 µM: 10 μM inhibitor; for IC50: mouse brain membrane fraction or cell lysates, 30 min preincubation at 37° C., read-out: Mouse (IC50 value, nM) MAGL
T3 construct: Proteomes (mouse brain membrane fraction or cell lysates); from tissue; host or cells: mouse brain membrane fraction (or cell lysates, not specified)
T3 sequence (O35678 1-303): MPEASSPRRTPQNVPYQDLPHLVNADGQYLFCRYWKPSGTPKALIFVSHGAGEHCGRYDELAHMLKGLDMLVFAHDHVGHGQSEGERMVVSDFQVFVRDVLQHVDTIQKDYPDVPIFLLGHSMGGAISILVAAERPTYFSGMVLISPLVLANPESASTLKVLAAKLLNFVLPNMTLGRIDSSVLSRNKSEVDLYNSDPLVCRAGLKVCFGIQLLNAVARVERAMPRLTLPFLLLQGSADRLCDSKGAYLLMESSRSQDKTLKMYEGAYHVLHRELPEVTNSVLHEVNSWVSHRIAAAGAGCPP
Summary of the method: as §1

FAAH = biological target: T4, FAAH (Mus musculus, UniProt O08914); conditions: for inhibition at 1 µM: 1 μM inhibitor, read-out: % Inhibition at 1 μM, B = FAAH; for inhibition at 10 µM: 10 μM inhibitor, read-out: % Inhibition at 10 μM, B = FAAH; for IC50: mouse brain membrane fraction or cell lysates, 30 min preincubation at 37° C., read-out: Mouse (IC50 value, nM) FAAH
T4 construct: Proteomes (mouse brain membrane fraction or cell lysates); from tissue; host or cells: mouse brain membrane fraction (or cell lysates, not specified)
T4 sequence (O08914 1-579): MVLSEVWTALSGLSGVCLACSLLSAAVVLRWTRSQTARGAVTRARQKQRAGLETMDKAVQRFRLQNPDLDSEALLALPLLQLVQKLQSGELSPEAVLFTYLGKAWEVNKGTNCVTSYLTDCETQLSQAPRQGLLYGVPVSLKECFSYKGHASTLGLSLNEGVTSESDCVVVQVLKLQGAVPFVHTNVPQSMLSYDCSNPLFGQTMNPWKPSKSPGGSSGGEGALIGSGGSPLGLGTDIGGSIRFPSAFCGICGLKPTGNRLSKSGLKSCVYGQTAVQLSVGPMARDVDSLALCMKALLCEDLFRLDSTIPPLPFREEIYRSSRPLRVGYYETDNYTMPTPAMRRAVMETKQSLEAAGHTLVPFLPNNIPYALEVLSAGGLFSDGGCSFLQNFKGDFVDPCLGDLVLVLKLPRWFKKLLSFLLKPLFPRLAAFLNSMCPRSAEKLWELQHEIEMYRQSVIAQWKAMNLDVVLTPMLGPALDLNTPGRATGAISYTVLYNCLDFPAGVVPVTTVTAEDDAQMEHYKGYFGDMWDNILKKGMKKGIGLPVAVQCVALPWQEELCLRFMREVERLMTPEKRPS
Summary of the method: as §1

Row | Structure (SMILES) | inhibition at 1 µM (ABHD6) [%] | inhibition at 10 µM (ABHD6) [%] | IC50 (ABHD6) [nM] | inhibition at 1 µM (PLA2G7) [%] | inhibition at 10 µM (PLA2G7) [%] | inhibition at 1 µM (MAGL) [%] | inhibition at 10 µM (MAGL) [%] | IC50 (MAGL) [nM] | inhibition at 1 µM (FAAH) [%] | inhibition at 10 µM (FAAH) [%] | IC50 (FAAH) [nM] | IC50 (PLA2G7) [nM]
1 | CCN(Cc1cccc(Cl)c1)C(=O)n1cc(Cl)cn1 [Example 134, 4-Chloro-N-(3-chlorobenzyl)-N-ethyl-1H-pyrazole-1-carboxamide] | < 25 | > 75 | > 1000 | < 25 | < 25 | 25 to 75 | > 75 | > 1000 | > 75 | > 75 | 100 to 1000 | –
2 | CCN(Cc1cccc(C)c1)C(=O)n1cc(Cl)cn1 [Example 135, 4-Chloro-N-ethyl-N-(3-methylbenzyl)-1H-pyrazole-1-carboxamide] | < 25 | > 75 | > 1000 | < 25 | < 25 | 25 to 75 | > 75 | > 1000 | > 75 | > 75 | 100 to 1000 | –
3 | O=C(N1CCCCC1)n1cc(-c2ccccc2)cn1 [Example 136, (4-Phenyl-1H-pyrazol-1-yl)(piperidin-1-yl)methanone] | > 75 | > 75 | – | > 75 | > 75 | < 25 | < 25 | – | > 75 | > 75 | – | –
4 | Cc1cc(-c2ccccc2)ccc1CN1CCN(C(=O)n2cc(Cl)cn2)CC1 [Example 137, (4-Chloro-1H-pyrazol-1-yl)(4-((3-methylbiphenyl-4-yl)methyl)piperazin-1-yl)methanone] | > 75 | > 75 | 100 to 1000 | < 25 | 25 to 75 | > 75 | > 75 | < 100 | > 75 | > 75 | < 100 | > 1000
5 | Cc1cc(-c2ccccc2)ccc1CN1CCN(C(=O)n2cc(C#N)cn2)CC1 [Example 138, 1-(4-((3-methylbiphenyl-4-yl)methyl)piperazine-1-carbonyl)-1H-pyrazole-4-carbonitrile] | > 75 | > 75 | < 100 | > 75 | > 75 | > 75 | > 75 | < 100 | > 75 | > 75 | < 100 | < 100
6 | O=C(N1CCN(Cc2ccc(-c3ccccc3)cc2Cl)CC1)n1cc(Cl)cn1 [Example 139, (4-chloro-1H-pyrazol-1-yl)(4-((3-chlorobiphenyl-4-yl)methyl)piperazin-1-yl)methanone] | > 75 | > 75 | 100 to 1000 | < 25 | > 75 | > 75 | > 75 | < 100 | > 75 | > 75 | < 100 | > 1000
7 | N#Cc1cnn(C(=O)N2CCN(Cc3ccc(-c4ccccc4)cc3Cl)CC2)c1 [Example 140, 1-(4-((3-chlorobiphenyl-4-yl)methyl)piperazine-1-carbonyl)-1H-pyrazole-4-carbonitrile] | > 75 | > 75 | – | > 75 | > 75 | > 75 | > 75 | – | > 75 | > 75 | – | –
8 | COc1cc(-c2ccccc2)ccc1CN1CCN(C(=O)n2cc(Cl)cn2)CC1 [Example 141, (4-Chloro-1H-pyrazol-1-yl)(4-((3-methoxybiphenyl-4-yl)methyl)piperazin-1-yl)methanone] | > 75 | > 75 | 100 to 1000 | < 25 | > 75 | > 75 | > 75 | < 100 | > 75 | > 75 | 100 to 1000 | –
9 | Cc1cc(-c2ccccc2)ccc1CN1CCN(C(=O)n2cc(C(F)(F)F)cn2)CC1 [Example 142, (4-((3-Methylbiphenyl-4-yl)methyl)piperazin-1-yl)(4-(trifluoromethyl)-1H-pyrazol-1-yl)methanone] | > 75 | > 75 | 100 to 1000 | > 75 | > 75 | > 75 | > 75 | < 100 | > 75 | > 75 | < 100 | –
10 | O=C(N1CCN(Cc2ccc(-c3ccccc3)cc2Cl)CC1)n1cc(C(F)(F)F)cn1 [Example 143, (4-((3-Chlorobiphenyl-4-yl)methyl)piperazin-1-yl)(4-(trifluoromethyl)-1H-pyrazol-1-yl)methanone] | > 75 | > 75 | 100 to 1000 | 25 to 75 | > 75 | > 75 | > 75 | < 100 | > 75 | > 75 | < 100 | –
11 | COc1cc(-c2ccccc2)ccc1CN1CCN(C(=O)n2cc(C(F)(F)F)cn2)CC1 [Example 144, (4-((3-Methoxybiphenyl-4-yl)methyl)piperazin-1-yl)(4-(trifluoromethyl)-1H-pyrazol-1-yl)methanone] | > 75 | > 75 | – | > 75 | > 75 | > 75 | > 75 | – | > 75 | > 75 | – | –
12 | COc1cc(-c2ccccc2)ccc1CN1CCN(C(=O)n2cc(C#N)cn2)CC1 [Example 145, 1-(4-((3-Methoxybiphenyl-4-yl)methyl)piperazine-1-carbonyl)-1H-pyrazole-4-carbonitrile] | > 75 | > 75 | – | > 75 | > 75 | > 75 | > 75 | – | > 75 | > 75 | – | –
